Assay [1] has as its target T1, tyrosinase.
T1 construct: gene PPO3; mushroom tyrosinase is a guess from usual assay practice
Briefly: L-DOPA oxidation, […] nm. In kind it is biochemical. To be noted: 2.0 mM L-DOPA stock, phosphate buffer pH 6.8, room temperature; RA in 50% DMSO, 0.05-2.5 mg/mL test solutions, 25 µL per well; value may refer to prepared solution, not final well concentration.

The target of assay [2] is AChE (acetylcholinesterase). Kind of assay: Ellman assay, […] nm. In kind it is biochemical. To be noted: acetylthiocholine iodide, DTNB, Tris-HCl pH 8.0, room temperature; RA in DMSO, 2.5-25 mg/mL test solutions, 20 µL per well; value may refer to prepared solution, not final well concentration. (Ellman's reagent forms a yellow product with free thiols.)

Converted amounts (≈) assume the structure as drawn.

For orientation: IC50 means the concentration at which inhibition is half-maximal. Read a low IC50 as greater potency in that assay. For the compound `O=C(/C=C/c1ccc(O)c(O)c1)O[C@H](Cc1ccc(O)c(O)c1)C(=O)O` [RA, rosmarinic acid], the IC50 in assay [1] is 1591 ± 77 µg/mL (≈ 4.42 mM); in assay [2] it was 8983 ± 162 µg/mL (≈ 24.9 mM).

Source of the values: paper PMC9611598, “Cyclodextrin Derivatives as Promising Solubilizers to Enhance the Biological Activity of Rosmarinic Acid” (Pharmaceutics, 2022).
